Laboratory results taken from patent publication US11174298B2, “Preparation and use of ginsentides and ginsentide-like peptides” (priority 2016, dated 2021).

What was measured:
H9c2 cells = assay: MTT cell viability of H9c2 cells, co-treatment with DOX; type: cell-based, rat
Description: To identify whether ginsentides can attenuate DOX-induced cardiotoxicity in cardiomyocytes, cell viability after drug treatment was measured by MTT assay.
After 24 h co-treatment of DOX with ginsentides, the viability of H9c2 cells was enhanced by ˜20% compared to the DOX-alone treatment (FIG. 43.).

[1] = system: human endothelial cells (HUVEC-CS); assay: Cellular NO synthesis in HUVEC-CS (DAF-2 DA staining); type: cell-based
α1-adrenergic receptor = assay: Phenylephrine-induced aortic ring contraction, isometric tension, ex vivo; parameters: species or system rat; details: thoracic aorta pre-contracted with phenylephrine (0.1 μM)
isolated thoracic aorta = assay: KCl-induced aortic ring contraction, isometric tension, ex vivo; parameters: species or system rat; details: thoracic aorta pre-contracted with KCl (30 mM)
[2] = Heparin HPLC affinity column; type: binding
Excerpt: Heparin-binding properties of ginsentides using heparin HPLC affinity column.

| Compound | Protective effects on cardiomyocytes during DOX-treatment (H9c2 cells) | Cellular NO release compared among ginsentides [1] | Relaxation of phenylephrine-induced aortic ring contraction (α1-adrenergic receptor) | Relaxation of KCl-induced contracted aortic ring (isolated thoracic aorta) | Retention in heparin HPLC affinity column [2] |
| --- | --- | --- | --- | --- | --- |
| CC(C)=CCC[C@](C)(O[C@@H]1O[C@H](CO[C@@H]2O[C@H](CO)[C@@H](O)[C@H](O)[C@H]2O)[C@@H](O)[C@H](O)[C@H]1O)[C@H]1CC[C@]2(C)[C@@H]1[C@H](O)C[C@@H]1[C@@]3(C)CC[C@H](O[C@@H]4O[C@H](CO)[C@@H](O)[C@H](O)[C@H]4O[C@@H]4O[C@H](CO)[C@@H](O)[C@H](O)[C@H]4O)C(C)(C)[C@@H]3CC[C@]12C [ginsenoside Rb1] | did not showed any protective effects | – | – | – | – |
| CC(C)=CCC[C@](C)(O[C@@H]1O[C@H](CO)[C@@H](O)[C@H](O)[C@H]1O)[C@H]1CC[C@]2(C)[C@@H]1[C@H](O)C[C@@H]1[C@@]3(C)CC[C@H](O)C(C)(C)[C@@H]3[C@@H](O[C@@H]3O[C@H](CO)[C@@H](O)[C@H](O)[C@H]3O[C@@H]3O[C@@H](C)[C@H](O)[C@@H](O)[C@H]3O)C[C@]12C [ginsenoside Re] | did not showed any protective effects | – | – | – | – |
| CC(C)=CCC[C@](C)(O[C@@H]1O[C@H](CO)[C@@H](O)[C@H](O)[C@H]1O)[C@H]1CC[C@]2(C)[C@@H]1[C@H](O)C[C@@H]1[C@@]3(C)CC[C@H](O)C(C)(C)[C@@H]3[C@@H](O[C@@H]3O[C@H](CO)[C@@H](O)[C@H](O)[C@H]3O)C[C@]12C [ginsenoside Rg1] | did not showed any protective effects | – | – | – | – |
| CISSGGWCGFD-LHGCCG--NCGCLV--GFCYGTGC- (CISSGGWCGFDLHGCCGNCGCLVGFCYGTGC; listed as Panax quinquefolius) [Ginsentide TP8] | – | comparable cellular NO release | relaxes phenylephrine-induced aortic ring contraction | not KCI-induced contracted aortic ring | – |
| CKSAGTWCGFD-PHGCCG--SCGCLV--GFCYGVSC- (CKSAGTWCGFDPHGCCGSCGCLVGFCYGVSC; Panax ginseng) [Ginsentide TP3] | – | comparable cellular NO release | relaxes phenylephrine-induced aortic ring contraction | not KCI-induced contracted aortic ring | retented in a heparin HPLC affinity column |
| CKSGGSWCGFD-PHGCCG--NCGCLV--GFCYGTGC- [Ginsentide TP9] | – | – | – | – | retented in a heparin HPLC affinity column |
